# Test results taken from patent publication US6448204B1, “Herbicidal 2-aryloxy-4-methyl-6-pyrazol-1-yl-pyridines” (BASF Aktiengesellschaft, priority 1999, dated 2002).
# What was measured:
# Format in all cases: in vivo
# [1] = tested on: weed species; test: Post-emergence test, summary over all weeds
# Procedure: To evaluate their herbicidal activity, compounds according to the invention are tested using a representative range of plants:
# These acetone solutions are diluted with water and the resulting formulations applied at dosage levels equivalent of about 0.025 to 0.4 kg per hectare of test compound per pot. After spraying the plants are placed on greenhouse benches and are cared for in the usual manner, commensurate with conventional greenhouse practices. From 2 to 4 weeks after treatment, the seedling plants are examined and rated according to the rating system provided above.
# [2] = tested on: Lamium purpureum (LAMPU); test: Pre-emergence test; settings: 3 weeks after treatment
# Procedure: (§1) To evaluate their herbicidal activity, compounds according to the invention are tested using a representative range of plants: […] The pre-emergence tests involve spraying a liquid formulation of the compound onto the soil in which the seeds of the plant species mentioned above has recently been sown. The soil used in the tests is a prepared horticultural loam. […] In these tests untreated sown soil are used as controls.
# [3] = tested on: Digitaria sanguinalis (DIGSA); test: Pre-emergence test; settings: 3 weeks after treatment
# Procedure: as §1
# [4] = tested on: Matricaria inodora (MATIN); test: Pre-emergence test; settings: 3 weeks after treatment
# Procedure: as §1
# [5] = tested on: Setaria viridis (SETVI); test: Pre-emergence test; settings: 3 weeks after treatment
# Procedure: as §1
# [6] = tested on: Galium aparine (GALAP); test: Pre-emergence test; settings: 3 weeks after treatment
# Procedure: as §1
# [7] = tested on: Stellaria media (STEME); test: Pre-emergence test; settings: 3 weeks after treatment
# Procedure: as §1
# [8] = tested on: Abutilon theophrasti (ABUTH); test: Pre-emergence test; settings: 3 weeks after treatment
# Procedure: as §1
# [9] = tested on: Zea mays (ZEAMX); test: Pre-emergence test; settings: for Assessment rating ZEAMX (pre-emergence application): crop (corn), 3 weeks after treatment
# Procedure: as §1
# [10] = tested on: Cassia obtusifolia (CASOB); test: Pre-emergence test; settings: 3 weeks after treatment
# Procedure: as §1
# [11] = tested on: Ambrosia artemisifolia (AMBEL); test: Pre-emergence test; settings: 3 weeks after treatment
# Procedure: as §1
# [12] = tested on: Lolium multiflorum (LOLMU); test: Pre-emergence test; settings: 3 weeks after treatment
# Procedure: as §1
# [13] = tested on: Alopecurus myosuroides (ALOMY); test: Pre-emergence test; settings: 3 weeks after treatment
# Procedure: as §1
compound,measurement,setting,value
"Cc1cc(Oc2cc(C(F)(F)F)nn2C)nc(-n2ccc(C(F)(F)F)n2)c1 [Example 2, 4-methyl-2-(-3-trifluoromethyl-1H-prazol-1-yl)-6-(1-methyl-3-trifluoromethyl-pyrazol-5-yloxy)-pyridine]",Number of weed species controlled,[1]; 0.100 kg/ha,twelve weed species
same,"Herbicidal activity, overall judgement",[1]; versus known compound of the prior art,clearly superior activity
same,Assessment rating LAMPU (pre-emergence application),[2]; 0.013 kg/ha,8 (8 - Approaching complete kill)
same,Assessment rating LAMPU (pre-emergence application),[2]; 0.025 kg/ha,8 (8 - Approaching complete kill)
same,Assessment rating LAMPU (pre-emergence application),[2]; 0.100 kg/ha,9 (9 - Complete kill)
same,Assessment rating LAMPU (pre-emergence application),[2]; 0.400 kg/ha,9 (9 - Complete kill)
same,Assessment rating DIGSA (pre-emergence application),[3]; 0.013 kg/ha,9 (9 - Complete kill)
same,Assessment rating DIGSA (pre-emergence application),[3]; 0.025 kg/ha,9 (9 - Complete kill)
same,Assessment rating DIGSA (pre-emergence application),[3]; 0.100 kg/ha,9 (9 - Complete kill)
same,Assessment rating DIGSA (pre-emergence application),[3]; 0.400 kg/ha,9 (9 - Complete kill)
same,Assessment rating MATIN (pre-emergence application),[4]; 0.013 kg/ha,7 (7 - Good herbicidal effect)
same,Assessment rating MATIN (pre-emergence application),[4]; 0.025 kg/ha,8 (8 - Approaching complete kill)
same,Assessment rating MATIN (pre-emergence application),[4]; 0.100 kg/ha,9 (9 - Complete kill)
same,Assessment rating MATIN (pre-emergence application),[4]; 0.400 kg/ha,9 (9 - Complete kill)
same,Assessment rating SETVI (pre-emergence application),[5]; 0.013 kg/ha,9 (9 - Complete kill)
same,Assessment rating SETVI (pre-emergence application),[5]; 0.025 kg/ha,9 (9 - Complete kill)
same,Assessment rating SETVI (pre-emergence application),[5]; 0.100 kg/ha,9 (9 - Complete kill)
same,Assessment rating SETVI (pre-emergence application),[5]; 0.400 kg/ha,9 (9 - Complete kill)
same,Assessment rating GALAP (pre-emergence application),[6]; 0.013 kg/ha,1 (1 - Trace effect)
same,Assessment rating GALAP (pre-emergence application),[6]; 0.025 kg/ha,3 (3 - Moderate effect)
same,Assessment rating GALAP (pre-emergence application),[6]; 0.100 kg/ha,6 (6 - Herbicidal effect)
same,Assessment rating GALAP (pre-emergence application),[6]; 0.400 kg/ha,8 (8 - Approaching complete kill)
same,Assessment rating STEME (pre-emergence application),[7]; 0.013 kg/ha,6 (6 - Herbicidal effect)
same,Assessment rating STEME (pre-emergence application),[7]; 0.025 kg/ha,9 (9 - Complete kill)
same,Assessment rating STEME (pre-emergence application),[7]; 0.100 kg/ha,9 (9 - Complete kill)
same,Assessment rating STEME (pre-emergence application),[7]; 0.400 kg/ha,9 (9 - Complete kill)
same,Assessment rating ABUTH (pre-emergence application),[8]; 0.013 kg/ha,1 (1 - Trace effect)
same,Assessment rating ABUTH (pre-emergence application),[8]; 0.025 kg/ha,3 (3 - Moderate effect)
same,Assessment rating ABUTH (pre-emergence application),[8]; 0.100 kg/ha,8 (8 - Approaching complete kill)
same,Assessment rating ABUTH (pre-emergence application),[8]; 0.400 kg/ha,9 (9 - Complete kill)
same,Assessment rating ZEAMX (pre-emergence application),[9]; 0.013 kg/ha,0 (0 - No effect)
same,Assessment rating ZEAMX (pre-emergence application),[9]; 0.025 kg/ha,1 (1 - Trace effect)
same,Assessment rating ZEAMX (pre-emergence application),[9]; 0.100 kg/ha,2 (2 - Slight effect)
same,Assessment rating ZEAMX (pre-emergence application),[9]; 0.400 kg/ha,4 (4 - Injury)
same,Selectivity in maize,"[9]; pre-emergence, 0.100 kg/ha",Good selectivity in maize
same,Assessment rating CASOB (pre-emergence application),[10]; 0.013 kg/ha,0 (0 - No effect)
same,Assessment rating CASOB (pre-emergence application),[10]; 0.025 kg/ha,4 (4 - Injury)
same,Assessment rating CASOB (pre-emergence application),[10]; 0.100 kg/ha,8 (8 - Approaching complete kill)
same,Assessment rating CASOB (pre-emergence application),[10]; 0.400 kg/ha,9 (9 - Complete kill)
same,Assessment rating AMBEL (pre-emergence application),[11]; 0.013 kg/ha,4 (4 - Injury)
same,Assessment rating AMBEL (pre-emergence application),[11]; 0.025 kg/ha,7 (7 - Good herbicidal effect)
same,Assessment rating AMBEL (pre-emergence application),[11]; 0.100 kg/ha,8 (8 - Approaching complete kill)
same,Assessment rating AMBEL (pre-emergence application),[11]; 0.400 kg/ha,9 (9 - Complete kill)
same,Assessment rating LOLMU (pre-emergence application),[12]; 0.013 kg/ha,6 (6 - Herbicidal effect)
same,Assessment rating LOLMU (pre-emergence application),[12]; 0.025 kg/ha,6 (6 - Herbicidal effect)
same,Assessment rating LOLMU (pre-emergence application),[12]; 0.100 kg/ha,8 (8 - Approaching complete kill)
same,Assessment rating LOLMU (pre-emergence application),[12]; 0.400 kg/ha,8 (8 - Approaching complete kill)
same,Assessment rating ALOMY (pre-emergence application),[13]; 0.013 kg/ha,2 (2 - Slight effect)
same,Assessment rating ALOMY (pre-emergence application),[13]; 0.025 kg/ha,5 (5 - Definite injury)
same,Assessment rating ALOMY (pre-emergence application),[13]; 0.100 kg/ha,8 (8 - Approaching complete kill)
same,Assessment rating ALOMY (pre-emergence application),[13]; 0.400 kg/ha,8 (8 - Approaching complete kill)
